# Reference: patent publication US20230137943A1, “PHOTOPROXIMITY PROFILING OF PROTEIN-PROTEIN INTERACTIONS IN CELLS” (The University of Chicago, priority 2019, published 2023)
# Target: T1, SNAP-FLAG/α-FLAG antibody complex (Homo sapiens, UniProt P16455, A127T/A154D/C150Q/C62A/E30R/G131K/G132T/G153L/K125A/K32I/L33F/M134L/N157G/Q115S/Q116H/R128A/R135S/S151G/S152D/S159E)
# T1 construct: host or cells: clarified lysate of HEK293T cells transiently or stably expressing SnapFlag
# T1 sequence (P16455 1-182 E30R/K32I/L33F/C62A/Q115S/Q116H/K125A/A127T/R128A/G131K/G132T/M134L/R135S/C150Q/S151G/S152D/G153L/A154D/N157G/S159E limits assumed): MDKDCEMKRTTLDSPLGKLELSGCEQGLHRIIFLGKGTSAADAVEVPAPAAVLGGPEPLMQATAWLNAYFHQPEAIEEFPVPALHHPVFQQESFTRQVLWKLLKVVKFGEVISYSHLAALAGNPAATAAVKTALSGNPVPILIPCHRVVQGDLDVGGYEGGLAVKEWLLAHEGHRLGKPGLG
# Assay: Proximity-labeling assay in cell lysate (anti-biotin / anti-mouse Western blot)
# Format: biochemical
# Settings: 500 nM probe; for Proximal labeling of heavy and light chains upon irradiation: 365 nm light 10 minutes (FIG. 4C, FIG. 12B)
# Procedure: Proximity-labeling assays: Clarified cell lysate from HEK293T cells either transiently (see FIG. 4B) or stably (see FIG. 4C) expressing SNAP-Tag (NEB #N9183S; New England Biolabs, Ipswich, Mass., United States of America) or SnapFlag was normalized to 1 mg/mL and 250 μL aliquots incubated in a microcentrifuge tube with either 500 nM of PP1. PP2, or DMSO for 1 hour at 37° C. Washed anti-FLAG M2 affinity gel, 40 μL of a 50% slurry, was transferred to each reaction in 750 μL of DPBS and the resultant suspension left to rotate overnight at 4° C. (Sigma #A2220; Sigma-Aldrich, St. Louis, Mo., United States of America). Samples were then spun down at 4000×g, supernatant aspirated, and the resin washed with 1M urea in DPBS (1 mL×8) followed by DPBS (1 mL). After being resuspended in 100 μL of DPBS, the samples were placed on ice where they were irradiated with 365 nm light for 10 minutes (SPECTROLINKER™ XL-1500a UV crosslinker, Spectronics Corporation, Westbury, N.Y., United States of America). Once irradiated, the beads were washed with 100 mM pH 3.5 glycine buffer (100 μL×2) and DPBS (1 mL). To elute the remaining SNAP-FLAG and resin-bound FLAG-antibody the beads were boiled for 5 minutes at 95° C. in 20 μL 4×-loading buffer containing 8% SDS and 400 mM DTT. After which, 60 μL of DPBS was added and the suspension boiled at 95° C. for an additional 5 minutes. The samples were then run on SDS-PAGE gel and transferred to nitrocellulose where they were stained with anti-mouse IR dye (Li-cor #926-68072; Li-cor Biosciences, Lincoln, Nebr., United States of America) and streptavidin IR dye (Li-cor #926-32230; Li-cor Biosciences, Lincoln, Nebr., United States of America). Bands corresponding to biotinylated proteins and the FLAG antibody were visualized using an Odyssey infrared imager (Li-cor Biosciences, Lincoln, Nebr., United States of America).
# To study if proximal protein interactors could be labeled in response to the dual photoactivation of PP1 in vitro, the interaction between SNAP-FLAG protein and an α-FLAG monoclonal antibody (mAb) was examined in cell lysate. In this assay, proximal biotinylation of both heavy and light chains of the antibody was expected, as well as self-labeling of the SNAP-FLAG protein, under conditions where the protein complex is formed and the PP1 probe is photoactivated. To test this hypothesis in the presence and absence of the protein-protein complex, SNAP protein that contained or lacked the FLAG epitope was treated with PP1 probe, followed by incubation with α-FLAG mAb, bead-based pulldown of the complexes, and subsequent photoactivation. […] The requirement for photoactivation of PP1, as well as a related probe PP2 (see FIG. 6) was tested by forming the SNAP-FLAG/α-FLAG complexes, and then comparing protein biotinylation with or without irradiation.
# To study if proximal protein interactors could be labeled in response to the dual photoactivation of AC1 (see FIG. 12A) in vitro, the interaction between SNAP-FLAG protein and an α-FLAG monoclonal antibody (mAb) was examined in cell lysate. Briefly, 250 μL aliquots of cell lysate (HEK293T, SNAP-Flag) was incubated in a microcentrifuge tube with either 500 nM of photoprobe, or DMSO for 1 hour at 37° C. Washed anti-FLAG M2 affinity gel, 40 μL of a 50% slurry, was transferred to each reaction in 750 μL of DPBS and the resultant suspension left to rotate overnight at 4° C. (Sigma #A2220; Sigma-Aldrich, St. Louis, Mo., United States of America). Samples were then spun down at 4000×g, supernatant aspirated, and the resin washed with 1M urea in DPBS (1 mL×8) followed by DPBS (1 mL). After being resuspended in 250 μL of DPBS, the +UV samples were placed on ice where they were irradiated with 365 nm light for 10 minutes (SPECTROLINKER™ XL-1500a UV crosslinker, Spectronics Corporation, Westbury, N.Y., United States of America). Once irradiated, the beads were washed with 1 M Urea (1 mL×2) and DPBS (1 mL×2). […]
SMILES,Proximal labeling of heavy and light chains upon irradiation,"Biotinylation of α-FLAG antibody chains with SNAP-FLAG protein (FLAG epitope present, 365 nm 10 minutes (FIG. 4B))","Biotinylation with SNAP protein that lacked the FLAG sequence (no FLAG epitope, 365 nm 10 minutes (FIG. 4B))",Proximal labeling of heavy/light chain without irradiation (not exposed to 365 nm light (FIG. 4C))
COc1cc(COC(=O)NC(CCCCNC(=O)CCC2(C)N=N2)C(=O)NCCCCC2SCC3NC(=O)NC32)c([N+](=O)[O-])cc1OCCCC(=O)NCc1ccc(COc2nc(N)nc3[nH]cnc23)cc1 (centres unmarked) [AC1],labels a proximal protein binding partner,–,–,–
COc1cc(C(C)OC(=O)NC(CCCCNC(=O)CCC2(C)N=N2)C(=O)NCCCCCNC(=O)CCCCC2SCC3NC(=O)NC32)c([N+](=O)[O-])cc1OCCCC(=O)NCc1ccc(COc2nc(N)nc3[nH]cnc23)cc1 (centres unmarked) [PP1],a discrete biotinylated band was formed on both heavy and light chains,robust biotinylation of both heavy and light chain fragments,no protein-biotinylation,No proximal labeling
